Assay results published in PubChem BioAssay (NCI).
Several values for one entry are separate records, joined by “and”; a condition that tells them apart may be missing. Equal entries are not always repeated.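 Method: 48-hour compound exposure of cells in 96-well plates, five concentrations, linear interpolation of endpoints. Here, GI50 denotes the concentration required for 50% inhibition of growth. TGI marks complete inhibition of growth.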 Peptide text beside a SMILES is read from it. * marks the point of attachment. X34 = O=C(c1ccc(-c2ccc(Cl)cc2Cl)o1)*

Legend:
Experiment in all cases: NCI anticancer screen, dose series, 48 h
T-47D breast = system: T-47D breast
NCI-H226 lung = system: NCI-H226 lung
LOX IMVI melanoma = system: LOX IMVI melanoma
OVCAR-4 ovarian = system: OVCAR-4 ovarian
DU-145 prostate = system: DU-145 prostate
M14 melanoma = system: M14 melanoma
HS 578T breast = system: HS 578T breast
OVCAR-5 ovarian = system: OVCAR-5 ovarian
SF-268 CNS = system: SF-268 CNS
SK-MEL-5 melanoma = system: SK-MEL-5 melanoma
RPMI-8226 leukemia = system: RPMI-8226 leukemia

| SMILES | TGI (T-47D breast) [µM] | TGI (NCI-H226 lung) [µM] | TGI (LOX IMVI melanoma) [µM] | TGI (OVCAR-4 ovarian) [µM] | TGI (DU-145 prostate) [µM] | TGI (M14 melanoma) | TGI (HS 578T breast) [µM] | TGI (OVCAR-5 ovarian) | TGI (SF-268 CNS) [µM] | TGI (SK-MEL-5 melanoma) | TGI (RPMI-8226 leukemia) [µM] | GI50 (LOX IMVI melanoma) [µM] | GI50 (OVCAR-4 ovarian) [µM] | GI50 (DU-145 prostate) [µM] | GI50 (RPMI-8226 leukemia) [µM] | GI50 (M14 melanoma) [µM] | GI50 (HS 578T breast) [µM] | GI50 (OVCAR-5 ovarian) [µM] | GI50 (SF-268 CNS) [µM] | GI50 (SK-MEL-5 melanoma) [µM] |
| --- | --- | --- | --- | --- | --- | --- | --- | --- | --- | --- | --- | --- | --- | --- | --- | --- | --- | --- | --- | --- |
| CC1=C(SCCO)C(=O)c2ccccc2C1=O | 20.5 | 29.1 | 24.6 | 15.3 | 29.6 | 27.6 µM | 40.4 | 33.6 µM | 29.9 | 26.6 µM | – | – | – | – | – | – | – | – | – | – |
| CCCCC(=O)c1c(O)ccc2c(C)cc(=O)oc12 | 51.4 | > 100 | > 100 | > 100 | > 100 | > 100 µM | > 100 | > 100 µM | > 100 | > 100 µM | > 100 | – | – | – | – | – | – | – | – | – |
| CC[C@@]1(O)C[C@H](OC2CC(N(C)C)C(OC3CC(O)C(OC4CCC(=O)C(C)O4)C(C)O3)C(C)O2)c2c(cc3c(c2O)C(=O)c2c(O)cccc2C3=O)C1C(=O)OC (stereo not given in full) | – | – | – | 0.117 | 0.446 | 0.237 µM and 0.769 µM | 0.618 | 3.11 µM and 1.56 µM | – | 0.189 µM and 0.478 µM | – | – | – | – | – | – | – | – | – | – |
| C1=CC=C2NCCc3cccc(c3)CCNC3=CC=CC=CC3=NCCCCCCN=C2C=C1 | – | 86 | 26.9 | 39 | – | 29.8 µM | – | 47.8 µM | > 100 | – | 31.1 | – | – | – | – | – | – | – | – | – |
| [C-]#[N+]C(=C\c1ccc(O)cc1)/C(=C/c1ccc(O)cc1)[N+]#[C-] | 12.1 | > 22.7 | 5.16 | > 100 | 7.23 | > 20.4 µM | – | > 31.8 µM | > 100 | 5.36 µM | > 95.2 | – | – | – | – | – | – | – | – | – |
| N#Cc1ccc([N+](=O)[O-])cc1NC(N)=S | – | – | – | – | – | > 100 µM | – | > 100 µM | > 100 | > 100 µM | > 100 | – | – | – | – | – | – | – | – | – |
| O=S(=O)(O)c1cc(S(=O)(=O)O)c2c(N=Nc3ccc(S(=O)(=O)O)c4ccccc34)c(O)ccc2c1 | > 100 | > 100 | > 100 | > 100 | > 100 | > 100 µM | > 100 | > 100 µM | > 100 | > 100 µM | > 100 | – | – | – | – | – | – | – | – | – |
| CC(=O)OCCCCN1C(=O)CSc2ccccc21 | > 100 | – | > 100 | > 100 | > 100 | – | > 100 | > 100 µM | – | > 100 µM | > 100 | – | – | – | – | – | – | – | – | – |
| CC(C)C1=CC2=CC[C@@H]3[C@](C)(CCC[C@@]3(C)C(=O)O)[C@H]2CC1 | – | > 100 | > 100 | > 100 | – | > 100 µM | – | > 100 µM | > 100 | > 94.2 µM | > 79.7 | – | – | – | – | – | – | – | – | – |
| CN(C)c1ccc(C2CC(=O)CC(c3ccc(N(C)C)cc3)C23C(=O)NC(=S)NC3=O)cc1 (stereo not given) | > 100 | > 100 | > 100 | > 100 | > 100 | > 100 µM | > 100 | > 100 µM | > 100 | > 100 µM | > 100 | – | – | – | – | – | – | – | – | – |
| C=CCn1c(=O)c(Br)nn(CCOCP(=O)(OCC)OCC)c1=O | > 100 | > 100 | > 100 | – | > 100 | > 100 µM | > 100 | > 100 µM | > 100 | > 100 µM | > 100 | – | – | – | – | – | – | – | – | – |
| COc1cc2c3c(n(CCCn4cncn4)c(=O)c2cc1OC)-c1cc2c(cc1C3=O)OCO2 | > 100 | > 100 | > 49.3 | > 100 | > 34.7 | > 100 µM | > 100 | > 100 µM | > 100 | 31 µM | 12.3 | 0.0572 | > 100 | < 0.0293 | < 0.0194 | < 0.01 | > 73.6 | > 100 | 99 | 0.671 |
| COc1ccc(C(=O)c2nc3ccccc3nc2N2CCN(c3ccccc3)CC2)cc1OC | > 100 | – | > 100 | > 100 | > 100 | > 100 µM | > 100 | > 100 µM | > 100 | > 100 µM | > 100 | – | – | – | – | – | – | – | – | – |
| COC(=O)C(CC(C)C)NC(=O)C(Cc1ccccc1)NC(=O)C1CCCN1C(=O)C(CO)NC(=O)c1ccc(-c2ccc(Cl)cc2Cl)o1 (stereo not given) (X34-SPFL-OMe; configuration not given here) | > 100 | 44.9 | 47.9 | > 100 | > 100 | 49 µM | > 100 | 50.4 µM | > 100 | 35.2 µM | 44.2 | – | – | – | – | – | – | – | – | – |
| COc1nc2ccc(CNc3ccc(C(=O)NC(CCC(=O)O)C(=O)O)cc3)cc2nc1OC (stereo not given) | > 100 | > 100 | > 100 | > 100 | > 100 | > 100 µM | > 100 | > 100 µM | > 100 | > 100 µM | > 100 | – | – | – | – | – | – | – | – | – |
| O=Cc1ccccc1CCn1c(=O)c2cc3c(=O)n(CCc4ccccc4C=O)c(=O)c3cc2c1=O | – | > 100 | > 100 | > 100 | – | – | – | – | > 100 | > 100 µM | – | – | – | – | – | – | – | – | – | – |
| CN1c2c(nc(N)[nH]c2=O)NCC1CCNc1ccc(C(=O)NC(CCC(=O)O)C(=O)O)cc1 (stereo not given) | 4260 | 3050 | 783 | 2400 | 2660 | 1770 µM | 5910 | 2880 µM | 2710 | 2470 µM | 2930 | – | – | – | – | – | – | – | – | – |
| O=c1oc2cc(O)ccc2c2oc3cc(O)ccc3c12 | – | > 125 | > 102 | > 125 | – | – | – | > 125 µM | > 82.5 | 69.9 µM | > 125 | – | – | – | – | – | – | – | – | – |
| CC(=O)OC12CC[N+]3(C)CCCCC3C1=Nc1ccccc12 (stereo not given) | > 100 | > 100 | > 100 | > 100 | > 100 | > 100 µM | > 100 | > 100 µM | > 100 | > 100 µM | > 100 | – | – | – | – | – | – | – | – | – |
| Nc1nc(SCCNC(=O)CCc2ccc(O)c(I)c2)nc2c1ncn2C1OC(CO)C(O)C1O (stereo not given) | – | > 100 | – | > 100 | – | > 100 µM | – | > 100 µM | > 100 | > 100 µM | – | – | – | – | – | – | – | – | – | – |
| CCOc1ccccc1Nc1ccc(N)cc1S(=O)(=O)O | > 100 | > 100 | > 100 | > 100 | > 100 | > 100 µM | > 100 | > 100 µM | > 100 | > 100 µM | – | – | – | – | – | – | – | – | – | – |
| CC[C@@H]1CSC(/C=C/C2OC3OC(C)(C)OC3C3OC(C)(C)OC23)=N1 (stereo not given in full) | 16.8 | 35.9 | 20.6 | 17.7 | 5.19 | 22.9 µM | 75.2 | 22.8 µM | 18.8 | 20 µM | 32.5 | – | – | – | – | – | – | – | – | – |
